Experimental data reported in EP4600260A1, “KERATIN YK93-4, AND PREPARATION METHOD THEREFOR, PHARMACEUTICAL COMPOSITION THEREOF AND USE THEREOF” (INSTITUTE OF MATERIA MEDICA, CHINESE ACADEMY OF MEDICAL …, priority 2022, dated 2024).

Tested on: EL-4 lymphoma
Conditions: cyclophosphamide 100 mg/kg, intraperitoneal, single; routine blood analysis, P<0.05
Experimental: Preparation of experimental animals: The experimental animals were adapted to the experimental environment (temperature 22°C±2°C, relative humidity 50%±2%) for 1 day.
Subcutaneous inoculation of EL-4 cell suspension to replicate a mouse lymphoma model: The EL-4 tumor tissue was ground into a suspension using a glass homogenizer, the tumor suspension was aspirated with a syringe, the number of live cells was calculated, the cell concentration was adjusted to 2.0*10^6/ml with physiological saline, and then the suspension was injected into the left armpit of mice with 0.2 ml/mouse. […] On the day of treatment, weight was measured, 20µl of blood was obtained from the orbital blood and the routine blood analysis was performed. The tumor blocks were stripped, weighed and photographed, and the tumor suppression rate was calculated.
The tumor suppression rate [(The average weight of the tumor in the normal control group - the average weight of the tumor in the experimental group) / The average weight of the tumor in the normal control group × 100 %] and average value, standard deviation and standard errors of tumor weight were calculated. The data from the groups were compared with each other by T.TEST, and P<0.05 was considered as a significant difference.

O=P1(N(CCCl)CCCl)NCCCO1 (stereo not shown) [cyclophosphamide, Cyclophosphamide]
number of leukocytes, lymphocytes, monocytes, and neutrophils: significantly reduced
